According to patent US4124766A, “Substituted 3-(4-imidazolylmethylene)carbazic and thiocarbazic acid esters” (American Cyanamid Company, priority 1977, dated 1978):

Key:
[1] = test system: mouse skin PDE (cyclic-AMP phosphodiesterase); assay: Mouse skin phosphodiesterase (PDE) inhibition test (A); type: biochemical, mouse (hairless mice); design: key to Mouse Skin Phosphodiesterase (A): Active: A compound is considered active if it inhibits more than theophylline, that is, to 50% of control at 1 mM concentration of compound, or to 80% of control for 0.05 mM concentration of compound; conditions: for Mouse Skin Phosphodiesterase (A): final concentration of test compound 10 ug./ml, active = inhibits more than theophylline
[2] = test system: monkey lung cyclic AMP phosphodiesterase; assay: Monkey lung phosphodiesterase inhibition test (B); type: biochemical, African green monkey; design: key to Monkey Lung Phosphodiesterase (B): Active: A compound is considered active if it inhibits more than theophylline, that is, to 50% of control at 1 mM concentration of compound, or to 80% of control for 0.05 mM concentration of compound; conditions: for Monkey Lung Phosphodiesterase (B): test compound usually 1 mM or 0.1 mM, active = inhibits more than theophylline
Description: Lung parenchyma of African green monkeys is homogenized in a Waring blender and centrifuged at 40,000 × gravity for 20 minutes. The supernatant is brought to 70% saturation of ammonium sulfate, centrifuged and the pellet redissolved and dialysed, before aliquoting and storage at -20° C.
Phosphodiesterase is assayed by the method of Thompson and Appleman, ibid. An assay tube contains a 0.4 ml. solution of the following: 45 mM tris-HCl buffer, pH 7.4, 6.25 mM MgCl2, 0.1 mM dithioerythritol, 10^-6 M cyclic AMP, 0.1 uCi [^3 H]-cyclic AMP, and test compound at the desired concentration (usually 1 mM or 0.1 mM). Compounds not readily soluble in water are dissolved at 40 times the desired concentration in methanol, and diluted 20 times with water. If the compound is not dissolved at this time, it is suspended by sonication before being diluted 1:2 into the assay tube. In this case the activity of the enzyme in the presence of the compound is compared to a solvent control (2.5% methanol), although the solvent alone has negligible effect. The reaction is initiated by addition of enzyme and proceedes at 25° C. for 20 minutes. It is terminated by incubation at 100° C. for 2 minutes. The tubes are cooled to 25° C., 0.8 ug of 5'-nucleotidase (Crotolus adamantus toxin) is added to each and the tubes incubated at 25° C. for 30 minutes. A one milliliter suspension of Bio-Rad Labs. AGIX8® (about 0.5 ml. of settled resin) is added, the tubes centrifuged at 900 × gravity for 10 minutes and an aliquot of supernatant removed for scintillation counting. The inhibition by the test compound is calculated as: [formula] where `compound` is the cpm in the presence of compound, `control` is the cpm in the absence of compound, and `blank` is the cpm in the absence of enzyme. […] For this reason, control tubes which contained [^3 H]-AMP instead of [^3 H]-cyclic AMP are run in parallel. A correction of the apparent phosphodiesterase activity is made for the rare compound which inhibited the hydrolysis of AMP.
A compound is considered active if it inhibits more than theophylline, that is, to 50% of control at 1 mM concentration of compound, or to 80% of control for 0.05 mM concentration of compound.

SMILES | phosphodiesterase activity, % of control (theophylline benchmark) ([1]; 0.05 mM concentration of compound, criterion stated for skin (A) or lung (B)) [%] | phosphodiesterase activity, % of control (theophylline benchmark) ([2]; 1 mM concentration of compound, criterion stated for skin (A) or lung (B)) [%] | Mouse Skin Phosphodiesterase (A) [1] | Monkey Lung Phosphodiesterase (B) [2]
Cn1c(=O)c2[nH]cnc2n(C)c1=O [theophylline, reference compound] | 80 | 50 | – | –
CCCc1nc(C)c2cn[nH]c(=S)n12 [8-Methyl-6-n-propyl-imidazo[1,5-d]-as-triazine-4(3H)-thione] | – | – | Active | Active
Cc1ncn2c(=S)[nH]ncc12 [8-Methyl-imidazo[1,5-d]-as-triazine-4(3H)-thione] | – | – | Active | –
O=c1[nH]ncc2c(Cl)nc(-c3ccccc3)n12 [8-Chloro-6-phenyl-imidazo[1,5-d]-as-triazin-4(3H)-one] | – | – | Active | Active
O=c1[nH]ncc2c(Br)nc(-c3ccccc3)n12 [8-Bromo-6-phenyl-imidazo[1,5-d]-as-triazin-4(3H)-one] | – | – | Active | Active
Cc1nc(-c2ccccc2)n2c(=O)[nH]ncc12 [8-Methyl-6-phenyl-imidazo[1,5-d]-as-triazin-4(3H)-one] | – | – | Active | Active
Cc1nc(Cc2ccccc2)n2c(=S)[nH]ncc12 [6-Benzyl-8-methyl-imidazo[1,5-d]-as-triazine-4(3H)-thione] | – | – | Active | Active
CCCc1ncc2cn[nH]c(=O)n12 [6-n-Propyl-imidazo[1,5-d]-as-triazin-4(3H)-one] | – | – | Active | –
Cc1ncn2c(=O)[nH]ncc12 [8-Methyl-imidazo[1,5-d]-as-triazin-4(3H)-one] | – | – | Active | –
CC(C)(C)c1ncc2cn[nH]c(=O)n12 [6-tert-Butyl-imidazo[1,5-d]-as-triazin-4(3H)-one] | – | – | Active | –
CCCc1ncc2cn[nH]c(=S)n12 [6-n-Propyl-imidazo[1,5-d]-as-triazine-4(3H)-thione] | – | – | Active | Active
CCCOc1ccccc1-c1ncc2cn[nH]c(=O)n12 [6-o-Propoxyphenyl-imidazo[1,5-d]-as-triazin-4(3H)-one] | – | – | Active | –
Cc1nc(C(C)(C)C)n2c(=O)[nH]ncc12 [6-tert-Butyl-8-methyl-imidazo[1,5-d]-as-triazin-4(3H)-one] | – | – | Active | Active
Cc1nc(C)n2c(=S)[nH]ncc12 [6,8-Dimethyl-imidazo[1,5-d]-as-triazine-4(3H)-thione] | – | – | Active | –
Cc1nc(C)n2c(=O)[nH]ncc12 [6,8-Dimethyl-imidazo[1,5-d]-as-triazin-4(3H)-one] | – | – | Active | Active
O=c1[nH]ncc2cnc(Cc3ccccc3)n12 [6-Benzyl-imidazo[1,5-d]-as-triazin-4(3H)-one] | – | – | Active | –
Cc1nc(Cc2ccccc2)n2c(=O)[nH]ncc12 [6-Benzyl-8-methyl-imidazo[1,5-d]-as-triazin-4(3H)-one] | – | – | Active | –
O=c1[nH]ncc2cnc(-c3ccccc3)n12 [6-Phenyl-imidazo[1,5-d]-as-triazin-4(3H)-one] | – | – | Active | –
Cc1nc(-c2ccccc2)n2c(=S)[nH]ncc12 [8-Methyl-6-phenyl-imidazo[1,5-d]-as-triazine-4(3H)-thione] | – | – | Active | –
